From US20250145564A1, “SULFONYLUREA COMPOUND, PREPARATION METHOD THEREFOR, AND APPLICATION THEREOF” (SHANGHAI INSTITUTE OF MATERIA MEDICA, CHINESE ACADEMY OF …, priority 2021, published 2025)

Columns and labels:
[1] = molecular target: T1, sEH in cardiomyocytes (AC16) (Homo sapiens, UniProt P34913); assay: Inhibition assay on sEH in cardiomyocytes (14,15-EET/DHET ELISA); type: cell-based; settings: AC16, 0.1, 1 and 10 μM, 24 hours; for content of DHET in cardiomyocytes / content of EETs in cardiomyocytes: compared with the control
T1 construct: endogenous in cells; host or cells: AC16 human cardiomyocyte cell line (ATCC)
T1 sequence (P34913 1-555): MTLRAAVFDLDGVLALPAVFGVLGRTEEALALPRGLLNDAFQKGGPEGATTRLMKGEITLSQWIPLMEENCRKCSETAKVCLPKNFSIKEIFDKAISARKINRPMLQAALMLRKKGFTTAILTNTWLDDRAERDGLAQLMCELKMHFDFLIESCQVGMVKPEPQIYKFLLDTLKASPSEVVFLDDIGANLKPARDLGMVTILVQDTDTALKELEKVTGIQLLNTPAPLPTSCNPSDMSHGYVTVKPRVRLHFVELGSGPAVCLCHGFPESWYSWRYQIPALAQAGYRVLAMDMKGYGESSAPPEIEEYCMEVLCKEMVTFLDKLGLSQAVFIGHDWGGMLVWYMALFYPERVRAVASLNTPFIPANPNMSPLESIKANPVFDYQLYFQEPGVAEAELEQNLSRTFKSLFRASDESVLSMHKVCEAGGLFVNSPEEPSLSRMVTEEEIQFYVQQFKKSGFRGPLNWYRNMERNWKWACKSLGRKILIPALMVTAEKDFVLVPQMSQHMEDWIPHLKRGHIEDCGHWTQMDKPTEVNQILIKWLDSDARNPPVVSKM
Description: (§1) Biomaterial sources: Human cardiomyocyte cell line AC16 was purchased from ATCC, USA. Phenylephrine (PE) was purchased from Sigma Company. AUDA was purchased from Cayman Company.
The compounds were dissolved in DMSO. The working concentrations were 0.1, 1 and 10 μM for the compounds of the present invention, 0.1, 1 and 10 μM for glimepiride, and 1 μM for AUDA. The incubation time was 24 hours.
(§2) The ELISA detection kit (BIOTARGET 14,15-EET/DHET ELISA KIT) from Detroit R&D company was used, and the experiment was conducted according to the instructions of the kit.
(§3) After 24 hours of incubation, cardiomyocytes were collected to perform the above detection.

[2] = system: PE induced cardiomyocyte remodeling (AC16); assay: Inhibitory effect on PE induced myocardial injury (BNP mRNA); type: cell-based, human; settings: PE 100 μM, 24 hours; compounds 0.1, 0.5, 1 μM; glimepiride 10 μM
Description: as §1
PE was dissolved in disinfected deionized water with a working concentration of 100 μM. The compounds were dissolved in DMSO, and the working concentrations were 0.1, 0.5, 1 μM for the compounds of the present invention, 10 μM for glimepiride, and 1 μM for AUDA. The incubation time was 24 hours.
(§4) Total RNA was extracted using Invitrogen's Trizol reagent, then cDNA was obtained using TAKARA's reverse transcription kit, and finally the mRNA content of related genes was amplified with specific primers.
as §3

[3] = system: mice with chronic heart failure (TAC); assay: Anti-heart failure effect in vivo, TAC mouse model; settings: for impaired cardiac function (EF value, FS value, dp/dt reduced by TAC): daily gavage 0.2 mg/kg and 0.4 mg/kg; for cross-sectional area of cardiomyocytes, HE staining (myocardial hypertrophy) / positive area of Sirius red staining (myocardial fibrosis): daily gavage eight weeks, I-1, I-23 0.2 and 0.4 mg/kg, glimepiride 1.2 mg/kg
Description: (§5) 12-week-old male C57BL/6 mice, which were purchased from Gempharmatech Co., Ltd, were raised in the SPF animal house of Tongji Medical College, Huazhong University of Science and Technology. After one week of acclimatization in the animal house, the mice were subjected to thoracic aortic constriction as the TAC group. Another group of mice were subjected to thoracotomy without ligation of thoracic aorta as Sham group. Meanwhile, AUDA was used as the positive control.
(§6) Cardiac ultrasound detection was performed on a Visual Sonics Vevo 2100 small animal ultrasound imager. The major measurement indicators include heart rate (HR), left ventricular ejection fraction (LVEF), left ventricular fractional shortening (LVFS), left ventricular internal dimension-diastole (LVIDd) and left ventricular internal dimension-systole (LVIDs), and left ventricular posterior wall thickness (LVPWd and LVPWs).
(§7) The detection was performed on a Millar pressure-volume system from Millar Instr Ment PowerLab. After the animals were anesthetized to an appropriate extent, a midline incision was made in the neck, the right common carotid artery was separated, ligated at the distal end and clipped at the proximal end. A V-shaped incision was made on the artery with microscissors, and a microcatheter was inserted to the left ventricle. Signals were recorded through a conduction system to obtain hemodynamic data such as heart rate (HR), left ventricular end diastolic pressure (PED), left ventricular end systolic pressure (PES), maximum rate of decrease in left ventricular pressure (−dp/dtmin), and maximum rate of increase in left ventricular pressure (+dP/dtmax).
(§8) The myocardial tissue was placed in an embedding frame, soaked and fixed in neutral formaldehyde solution, dehydrated, and embedded in paraffin. The paraffin block was then sliced into sections with a thickness of 4 μm on a microtome. The general appearance of the myocardium was observed through HE staining, and the myocardial fibrosis was observed through Sirius red staining.
as §4
(§9) Cardiac ultrasound examination was performed two weeks after TAC surgery. 24 TAC mice with no significant difference in cardiac function were selected and randomly divided into a model group (TAC) and a treatment group (TAC+compound). The model group received no other treatment, while the treatment group received daily gavage (0.2 mg/kg and 0.4 mg/kg for I-1 and I-23 of the present application, and 1.2 mg/kg for glimepiride). Eight weeks later, i.e., at the chronic heart failure phase, the animals were sacrificed, and tissue specimens were collected to perform the above detections.

[4] = molecular target: T2, sEH (human recombinant) (Homo sapiens, UniProt P34913); assay: sEH inhibition assay (fluorescence);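 further: enzyme preincubated with compound 30 min at 25 °C, then substrate added and fluorescence read after 15 min at 25 °C, 320 nm and 460 nm, versus DMSO negative control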
T2 sequence (P34913 1-555): T1 sequence (P34913 1-555)
Description: sEH Assay Buffer was purchased from Cayman Chemical; sEH (human recombinant) was purchased from Cayman Chemical; sEH substrate was purchased from Cayman Chemical. The working solution of 20% DMSO for the compounds was prepared by mixing dimethyl sulfoxide with water in a volume ratio of 1:4, and shaking to mix well.
sEH Assay Buffer (10×), SEH (human recombinant) and sEH substrate were thawed on ice.
The sEH Assay Buffer (lux) was prepared into a 1×sEH Assay Buffer with deionized water. 12 μL of sEH was added with 588 µL of 1× Assay Buffer to be diluted 50 times to obtain a sEH working solution. 180 µL of 1× Assay Buffer was added into the corresponding wells; the sEH working solution was added to the corresponding wells at 5 μL/well; the working solution of 20% DMSO for the compounds was added into the corresponding wells at 5 μL/well, and blank wells and negative control wells added with an equal amount of DMSO were set. After centrifuged at 1000 rpm for 1 minute, the wells were incubated at 25° C. for 30 minutes. After incubation, the substrate was added into the 96-wells plate at 5 μL/well and the plate was centrifuged at 1000 rpm for 1 minute. After incubation at 25° C. for 15 minutes, fluorescence values were read at emission wavelengths of 320 nm and 460 nm.

[5] = system: mice with chronic heart failure (TAC); assay: TAC mouse model, comparison of I-23 and Empagliflozin; type: in vivo; settings: for cardiac hypertrophy (heart photographs, heart weight/tibia length HW/TL) / expression of BNP in mouse cardiomyocytes after TAC / impaired cardiac function (EF value, FS value, LVIDs, dp/dt) / positive area of Sirius red staining (myocardial fibrosis): mice, daily gavage eight weeks, I-23 0.44 mg/kg, Empagliflozin 10 mg/kg
Description: as §5, §6, §7, §8, §4
as §9, with “(0.44” for “(0.2 mg/kg and 0.4”, “for” for “for I-1 and”, “or 10” for “of the present application, and 1.2”, “Empagliflozin).” for “glimepiride).”
This experiment was to compare the ameliorative effects of I-23 and Empagliflozin on chronic heart failure.

[6] = molecular target: T3, sEH in the hearts of mice with chronic heart failure (Mus musculus, UniProt P34914); assay: sEH enzymic activity in hearts of TAC mice; type: in vivo; settings: daily gavage 1.2 mg/kg, eight weeks
T3 construct: from tissue; host or cells: heart tissue of male C57BL/6 mice after TAC surgery
T3 sequence (P34914 1-554): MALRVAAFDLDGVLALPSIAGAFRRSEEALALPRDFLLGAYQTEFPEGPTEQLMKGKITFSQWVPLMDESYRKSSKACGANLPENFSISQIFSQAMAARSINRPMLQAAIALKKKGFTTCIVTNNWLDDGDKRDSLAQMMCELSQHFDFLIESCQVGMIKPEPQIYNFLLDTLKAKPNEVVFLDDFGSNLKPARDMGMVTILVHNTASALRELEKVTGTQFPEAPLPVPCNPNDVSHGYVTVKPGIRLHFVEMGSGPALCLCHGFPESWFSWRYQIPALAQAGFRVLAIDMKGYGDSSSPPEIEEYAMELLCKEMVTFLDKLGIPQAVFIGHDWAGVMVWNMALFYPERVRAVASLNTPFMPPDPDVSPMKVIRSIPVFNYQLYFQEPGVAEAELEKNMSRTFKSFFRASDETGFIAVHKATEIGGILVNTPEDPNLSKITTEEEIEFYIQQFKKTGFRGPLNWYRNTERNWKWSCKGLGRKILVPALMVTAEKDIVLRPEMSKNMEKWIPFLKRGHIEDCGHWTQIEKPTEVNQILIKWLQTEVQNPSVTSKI
Description: as §2, §5, §9

[7] = I-23 0.44 mg/kg vs Empagliflozin 10 mg/kg

## CCC1=C(C)CN(C(=O)NCCc2ccc(S(=O)(=O)N(C)C(=O)N[C@H]3CC[C@H](C)CC3)cc2)C1=O [Compound I-1]
[1]
  content of DHET in cardiomyocytes: reducing
  content of EETs in cardiomyocytes: significantly increase
[2]
  BNP expression induced by PE (cardiomyocyte remodeling): can inhibit this effect
[3]; eight weeks
  impaired cardiac function (EF value, FS value, dp/dt reduced by TAC): can inhibit this effect
[3]; daily gavage 0.2 and 0.4 mg/kg, eight weeks
  expression of BNP in mouse cardiomyocytes after TAC: can inhibit this effect
[3]
  cross-sectional area of cardiomyocytes, HE staining (myocardial hypertrophy): can inhibit this effect
  positive area of Sirius red staining (myocardial fibrosis): can inhibit this effect
[4]
  IC50: 1 to 10 µM

## Cc1ccc(S(=O)(=O)N(C)C(=O)NN2CC3CCCC3C2)cc1 (stereo not shown) [Compound I-4]
[1]
  content of DHET in cardiomyocytes: reducing
  content of EETs in cardiomyocytes: significantly increase
[2]
  BNP expression induced by PE (cardiomyocyte remodeling): can inhibit this effect
[4]
  IC50: 1 to 10 µM

## CCC1=C(C)CN(C(=O)NCCc2ccc(S(=O)(=O)NC(=O)N[C@H]3CC[C@H](COC(C)=O)CC3)cc2)C1=O [Compound I-23]
[1]
  content of DHET in cardiomyocytes: reducing
  content of EETs in cardiomyocytes: significantly increase
[2]
  BNP expression induced by PE (cardiomyocyte remodeling): can inhibit this effect
[3]; eight weeks
  impaired cardiac function (EF value, FS value, dp/dt reduced by TAC): can inhibit this effect
[3]
  cross-sectional area of cardiomyocytes, HE staining (myocardial hypertrophy): can inhibit this effect
  positive area of Sirius red staining (myocardial fibrosis): can inhibit this effect
[5]; [7]
  effect on cardiac hypertrophy relative to Empagliflozin: comparable to that of Empagliflozin
  effect on impaired cardiac function relative to Empagliflozin: comparable to that of Empagliflozin
[5]
  cardiac hypertrophy (heart photographs, heart weight/tibia length HW/TL): reversal effect
  expression of BNP in mouse cardiomyocytes after TAC: can inhibit this effect
  impaired cardiac function (EF value, FS value, LVIDs, dp/dt): can inhibit this effect
  positive area of Sirius red staining (myocardial fibrosis): can inhibit this effect
[4]
  IC50: 1 to 10 µM

## CCC1=C(C)CN(C(=O)NCCc2ccc(S(=O)(=O)NC(=O)N[C@H]3CC[C@H](OC(N)=O)CC3)cc2)C1=O [Compound I-31]
[4]
  IC50: 1 to 10 µM

## Cc1cnc(C(=O)NCCc2ccc(S(=O)(=O)N(C)C(=O)NC3CCCCC3)cc2)cn1 [Compound I-32]
[4]
  IC50: 1 to 10 µM

## Cc1ccc(S(=O)(=O)N(C)C(=O)NN2CCCCCC2)cc1 [Compound I-33]
[4]
  IC50: 1 to 10 µM

## CCC1=C(C)CN(C(=O)NCCc2ccc(S(=O)(=O)N(C)C(=O)NC3CCC(CC)CC3)cc2)C1=O (stereo not shown) [Compound I-34]
[4]
  IC50: 1 to 10 µM

## Cc1cc(C(=O)NCCc2ccc(S(=O)(=O)N(C)C(=O)NN3CCCCCC3)cc2)no1 [Compound I-35]
[4]
  IC50: 1 to 10 µM

## Cc1ccc(S(=O)(=O)N(C)C(=O)NC2[C@@H](O)C3(C)CC[C@@H]2C3(C)C)cc1 (stereo partly shown) [Compound I-36]
[4]
  IC50: 1 to 10 µM

## CCC1=C(C)CN(C(=O)NCCc2ccc(S(=O)(=O)N(CC)C(=O)N[C@H]3CC[C@H](C)CC3)cc2)C1=O [Compound I-37]
[4]
  IC50: 1 to 10 µM

## CCC1=C(C)CN(C(=O)NCCc2ccc(S(=O)(=O)N(C(=O)N[C@H]3CC[C@H](C)CC3)C(C)C)cc2)C1=O [Compound I-38]
[4]
  IC50: 1 to 10 µM

## CCC(=O)OC[C@H]1CC[C@H](NC(=O)NS(=O)(=O)c2ccc(CCNC(=O)N3CC(C)=C(CC)C3=O)cc2)CC1 [Compound I-39]
[4]
  IC50: 1 to 10 µM

## CCC(=O)OC[C@H]1CC[C@H](NC(=O)N(C)S(=O)(=O)c2ccc(CCNC(=O)N3CC(C)=C(CC)C3=O)cc2)CC1 [Compound I-40]
[4]
  IC50: 1 to 10 µM

## CCC1=C(C)CN(C(=O)NCCc2ccc(S(=O)(=O)NC(=O)N[C@H]3CC[C@H](COC(=O)C(C)C)CC3)cc2)C1=O [Compound I-41]
[4]
  IC50: 1 to 10 µM

## CCC1=C(C)CN(C(=O)NCCc2ccc(S(=O)(=O)N(C)C(=O)N[C@H]3CC[C@H](COC(=O)C(C)C)CC3)cc2)C1=O [Compound I-42]
[4]
  IC50: 1 to 10 µM

## CCC1=C(C)CN(C(=O)NCCc2ccc(S(=O)(=O)NC(=O)N[C@H]3CC[C@H](COC(=O)C(C)(C)C)CC3)cc2)C1=O [Compound I-43]
[4]
  IC50: 1 to 10 µM

## CCC1=C(C)CN(C(=O)NCCc2ccc(S(=O)(=O)N(C)C(=O)N[C@H]3CC[C@H](COC(=O)C(C)(C)C)CC3)cc2)C1=O [Compound I-44]
[4]
  IC50: 1 to 10 µM

## OC[C@H]1O[C@@H](c2ccc(Cl)c(Cc3ccc(O[C@H]4CCOC4)cc3)c2)[C@H](O)[C@@H](O)[C@@H]1O [Empagliflozin, reference compound]
[5]
  cardiac hypertrophy (heart photographs, heart weight/tibia length HW/TL): reversal effect
  expression of BNP in mouse cardiomyocytes after TAC: can inhibit this effect
  impaired cardiac function (EF value, FS value, LVIDs, dp/dt): can inhibit this effect
  positive area of Sirius red staining (myocardial fibrosis): can inhibit this effect

## CCC1=C(C)CN(C(=O)NCCc2ccc(S(=O)(=O)NC(=O)N[C@H]3CC[C@H](C)CC3)cc2)C1=O [glimepiride, reference compound]
[1]; effect increases as the concentration increases
  inhibitory effect on enzymic activity of sEH in cardiomyocytes: significant inhibitory effect
[2]
  BNP expression induced by PE (cardiomyocyte remodeling): can inhibit this effect
[3]; daily gavage 1.2 mg/kg, eight weeks
  impaired cardiac function (EF value and dp/dt reduced by TAC): can inhibit this effect
[3]
  cross-sectional area of cardiomyocytes, HE staining (myocardial hypertrophy): can inhibit this effect
  positive area of Sirius red staining (myocardial fibrosis): can inhibit this effect
[6]
  increase of sEH enzymic activity in the hearts after TAC: could inhibit this effect
